Source: patent US9551722B2, “Amyloid binding agents” (The Regents of the University of California, priority 2009, dated 2017)
Where “and” joins values, the source holds several entries; their conditions need not be identical. Equal values may be shown once.

Molecular target: T1, interaction of the aggregated Aβ peptide with a monoclonal anti-Aβ IgG (Homo sapiens, UniProt P05067)
T1 construct: Aggregated Aβ peptides were generated from synthetic Aβ(1-42) peptides
Assay: Semi-quantitative ELISA: inhibition of IgG-Aβ fibril interactions
Format: binding
Details: anti-Aβ IgG clone 6E10; for IC50: 50% inhibition of IgG-Aβ interactions; for Maximum % inhibition (ELISA): maximal percentage of IgG inhibited from binding to the fibrils
Description: The association of the synthesized compounds with aggregated Aβ peptides was tested using a semi-quantitative ELISA based assay developed by Yang and co-workers. See P. Inbar, J. Yang, Bioorg. Med. Chem. Lett. 2006, 16:1076-1079; P. Inbar, C. Q. Li, S. A. Takayama, M. R. Bautista, J. Yang, ChemBioChem 2006, 7:1563-1566; P. Inbar, M. R. Bautista, S. A. Takayama, J. Yang, Anal. Chem. 2008, 80:3502-3506. The assay is based on screening for molecules that inhibit the interaction of the aggregated Aβ peptide with a monoclonal anti-Aβ IgG raised against residues 1-17 of Aβ. Table 4 provides the concentrations of the compounds corresponding to 50% inhibition (IC50) of the IgG-Aβ interactions as well as the maximal percentage of the IgG's inhibited from binding to the fibrils. […] The maximum inhibition, a measure of the extent of surface coating of the aggregated peptide by the compounds, was determined to be between 40-98% (Table 4). See P. Inbar, J. Yang, Bioorg. Med. Chem. Lett. 2006, 16:1076-1079; P. Inbar, C. Q. Li, S. A. Takayama, M. R. Bautista, J. Yang, ChemBioChem 2006, 7:1563-1566; P. Inbar, M. R. Bautista, S. A. Takayama, J. Yang, Anal. Chem. 2008, 80:3502-3506. […] Specifically, while the maximum inhibition is between 81-98% for the phenyl compounds, it decreases to 58% for the longer naphthalene compound 11 and to 40% for the more conjugated stilbene 19.
Aggregated Aβ peptides were generated from synthetic Aβ(1-42) peptides by dissolving 30 μg of peptide in 90 μL of nanopure water (pH 5-6) and incubating at 37° C. for ≧72 h without agitation. Each well of a 96-well plate (well volume 0.4 mL; clear, flat bottom polypropylene) was coated for 3 h at 25° C. with 50 μL of 1.3 μM solution of Aβ peptides in phosphate-buffered saline (PBS, 10 mM NaH2PO4/Na2HPO4, 138 mM NaCl, 2.7 mM KCl, pH 7.4). After removal of the excess sample, 50 μL solutions of compounds in PBS buffer (various concentrations were obtained by diluting a stock solution with PBS buffer) were incubated in the wells for 12 h. […] The excess solutions were then removed and all wells were blocked for 30 min by adding 300 μL of a 1% (w/v) solution of bovine serum albumin in PBS buffer (BSA/PBS). On occasion, an additional blocking step was performed prior to incubation with solutions of small molecules. The blocking solution was discarded and the wells were washed once with 300 μL of PBS buffer. Wells were incubated for 1 h with 50 μL of a 1.1 nM solution (in 1% BSA/PBS, dilution 1:6000) of anti-Aβ IgG (clone 6E10, monoclonal, mouse), followed by removal of the solution. The wells were washed twice with 300 μL of PBS buffer and incubated for 60 min with 50 μL of the secondary IgG (anti-mouse IgG H+L, polyclonal, rabbit) conjugated with alkaline phosphatase (6.8 nM in 1% BSA/PBS, dilution 1:1000). The solution was discarded, and the wells were washed twice with 300 μL PBS buffer. Bound secondary IgGs were detected by the addition of 50 μL of a p-nitrophenyl phosphate solution (2.7 mM, in 100 mM diethanol amine/0.5 mM magnesium chloride, pH 9.8). Absorbance intensities were determined at 405 nm using a UV-vis spectroscopic plate reader (Sprectramax 190, Molecular Devices, Sunnyvale, Calif.). Each run was performed five times and averaged. Error bars represent standard deviations. Graphs were plotted and fitted with the sigmoid curve fitting.

T1 sequence (P05067 672-713 limits assumed): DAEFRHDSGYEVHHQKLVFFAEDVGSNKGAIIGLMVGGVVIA

SMILES: CCN(CC)c1ccc(C=C(C#N)C(=O)OCCOCCOCCOC)cc1 (stereo in doubt) [Cmpd 8c, (Z)-2-(2-(2-methoxyethoxyl)ethoxy)ethyl 2-cyano-3-(4-(diethylamino)phenyl)acrylate]
- IC50: 11.4 µM
- Maximum % inhibition (ELISA): 98%

SMILES: COCCOCCOCCOC(=O)/C(C#N)=C/c1ccc2cc(N3CCCCC3)ccc2c1 [Cmpd 11, (E)-2-(2-(2-methoxyethoxyl)ethoxy)ethyl-2-cyano-3-(6-(piperidin-1-yl)naphthalen-2-yl)acrylate]
- IC50: 74.3 µM
- Maximum % inhibition (ELISA): 58%

SMILES: CN(C)c1ccc(/C=C(\C#N)C(=O)OCC(O)CO)cc1 (stereo not drawn) [Cmpd 14, (E)-2,3-dihydroxypropyl 2-cyano-3-(4-(dimethylamino)phenyl) acrylate]
- IC50: 82.1 µM
- Maximum % inhibition (ELISA): 79%

SMILES: COCCOCCOCCOC(=O)/C(C#N)=C/c1ccc(N(C)C)cc1OC [Cmpd 8b, (E)-2-(2-(2-methoxyethoxyl)ethoxy)ethyl 2-cyano-3-(4-(dimethylamino)-2-methoxyphenyl)acrylate]
- IC50: 1.17 µM and 1.2 µM
- Maximum % inhibition (ELISA): 92%

SMILES: COCCOCCOCCOC(=O)/C(C#N)=C/c1ccc(N(C)C)cc1 [Cmpd 8a, (E)-2-(2-(2-methoxyethoxyl)ethoxy)ethyl 2-cyano-3-(4-(dimethylamino)phenyl)acrylate]
- IC50: 129 µM
- Maximum % inhibition (ELISA): 81%

SMILES: CCCCN(CCCC)c1ccc(C=C(C#N)C(=O)OCCOCCOCCOC)cc1 (stereo in doubt) [Cmpd 8d, (Z)-2-(2-(2-methoxyethoxyl)ethoxy)ethyl-2-cyano-3-(4-(dibutylamino)phenyl)acrylate]
- IC50: 90.6 µM
- Maximum % inhibition (ELISA): 91%
